Source: ChEMBL document CHEMBL1781971, “Discovery of 5-(arenethynyl) hetero-monocyclic derivatives as potent inhibitors of BCR-ABL including the T315I gatekeeper mutant” (Bioorg Med Chem Lett, 2011)

What was measured:
[1] = Volume of distribution in rat at 5 mg/kg, iv; format: ADME, organism-based; set-up: dose 5 mg/kg, route intravenous; conditions: in vivo
[2] = Oral bioavailability in rat at 15 mg/kg; format: ADME, organism-based; conditions: in vivo
[3] = cells; conditions: Mus musculus, BaF3
Description: Antiproliferative activity against BCR-ABL-negative parental mouse BA/F3 cells

[4] = system: Rattus norvegicus; test: AUC in rat at 5 mg/kg, iv; format: ADME, organism-based, Plasma; set-up: dose 5 mg/kg, route intravenous; conditions: in vivo
[5] = Half life in rat at 15 mg/kg, po; format: ADME, organism-based; set-up: dose 15 mg/kg, route oral; conditions: in vivo
[6] = cells; conditions: Mus musculus, BaF3; remark: listed apart in the source
[7] = Clearance in rat at 5 mg/kg, iv; format: ADME, organism-based; set-up: dose 5 mg/kg, route intravenous; conditions: in vivo
[8] = target: Tyrosine-protein kinase ABL1 (Homo sapiens, UniProt P00519, T315I)
[9] = Cmax in rat at 15 mg/kg, po; format: ADME, organism-based; set-up: dose 15 mg/kg, route oral; conditions: in vivo
[10] = target: Tyrosine-protein kinase ABL1 (Homo sapiens, UniProt P00519)
[11] = Plasma concentration in mouse after 6 hrs at 30 mg/kg, po; format: ADME, organism-based; set-up: dose 30 mg/kg, route oral
[12] = system: Rattus norvegicus; test: AUC in rat at 15 mg/kg, po; format: ADME, organism-based, Plasma; set-up: dose 15 mg/kg, route oral; conditions: in vivo
[13] = cells; conditions: Mus musculus, BaF3; remark: listed apart in the source
Description: Antiproliferative activity against mouse BA/F3 cells expressing wild type BCR-ABL

[14] = Cmax in rat at 5 mg/kg, iv; format: ADME, organism-based; set-up: dose 5 mg/kg, route intravenous; conditions: in vivo
[15] = Half life in rat at 5 mg/kg, iv; format: ADME, organism-based; set-up: dose 5 mg/kg, route intravenous; conditions: in vivo

Row | Structure (SMILES) | Vd [1] | bioavailability [2] | IC50 [3] | AUC [4] | half-life [5] | IC50 [6] | clearance [7] | IC50 [8] | Cmax [9] | IC50 [10] | concentration at 6 h [11] | AUC [12] | IC50 [13] | Cmax [14] | half-life [15]
1 | Cc1ccc(C(=O)Nc2ccc(CN3CCN(CCO)CC3)c(C(F)(F)F)c2)cc1C#Cc1cnc(C(N)=O)n1C | 11 L/kg | 14% | 1.32 µM | 2320 h/ng/mL | 6.3 h | 0.0058 µM | 2.15 L/h/kg | 0.036 µM | 0.0614 µg/mL | 0.0036 µM | 0.333 µg/mL | 962 h/ng/mL | 0.00061 µM | 0.598 µg/mL | 3.5 h
2 | Cc1ccc(C(=O)Nc2ccc(CN3CCN(C)CC3)c(C(F)(F)F)c2)cc1C#Cc1cccnc1 |  |  | 2.04 µM |  |  | 0.0455 µM |  | 0.123 µM |  | 0.0403 µM |  |  | 0.0041 µM |  | 
3 | CC(=O)Nc1ccc(C#Cc2cc(C(=O)Nc3ccc(CN4CCN(C)CC4)c(C(F)(F)F)c3)ccc2C)cn1 |  |  | 1.79 µM |  |  | 0.0096 µM |  | 0.121 µM |  | 0.018 µM |  |  | 0.0022 µM |  | 
4 | CCC(=O)Nc1ccc(C#Cc2cc(C(=O)Nc3ccc(CN4CCN(C)CC4)c(C(F)(F)F)c3)ccc2C)cn1 |  |  | 1.66 µM |  |  | 0.0134 µM |  | 0.104 µM |  | 0.0286 µM |  |  | 0.0025 µM |  | 
5 | Cc1ccc(C(=O)Nc2ccc(CN3CCN(C)CC3)c(C(F)(F)F)c2)cc1C#Cc1cnc[nH]1 |  |  | 6.55 µM |  |  | 5.74 µM |  | 3.72 µM |  | 1 µM |  |  | 0.73 µM |  | 
6 | Cc1ccc(C(=O)Nc2ccc(CN3CCN(C)CC3)c(C(F)(F)F)c2)cc1C#Cc1cncn1C |  |  | 5.65 µM |  |  | 0.709 µM |  | 0.55 µM |  | 0.129 µM |  |  | 0.043 µM |  | 

Continued, values first:

Row | Vd [1] | bioavailability [2] | IC50 [3] | AUC [4] | half-life [5] | IC50 [6] | clearance [7] | IC50 [8] | Cmax [9] | IC50 [10] | concentration at 6 h [11] | AUC [12] | IC50 [13] | Cmax [14] | half-life [15] | Structure (SMILES)
7 | 8.5 L/kg | 85% | 2.82 µM | 5308 h/ng/mL | 10 h | 0.065 µM | 0.94 L/h/kg | 0.435 µM | 0.9 µg/mL | 0.0627 µM | 0.771 µg/mL | 13559 h/ng/mL | 0.0031 µM | 0.822 µg/mL | 6.2 h | Cc1ccc(C(=O)Nc2ccc(CN3CCN(C)CC3)c(C(F)(F)F)c2)cc1C#Cc1cncnc1
8 |  |  | 1.02 µM |  |  | 0.018 µM |  | 0.321 µM |  | 0.0487 µM |  |  | 0.0026 µM |  |  | Cc1ccc(C(=O)Nc2ccc(CN3CCN(C)CC3)c(C(F)(F)F)c2)cc1C#Cc1ccc(C(N)=O)nc1
9 |  |  | 0.607 µM |  |  | 0.519 µM |  | 0.457 µM |  | 0.0497 µM |  |  | 0.195 µM |  |  | Cc1ccc(C(=O)Nc2ccc(CN3CCN(C)CC3)c(C(F)(F)F)c2)cc1C#Cc1cnc(NC2CC2)nc1
